In one experiment the target is T1, PRMT5:MEP50 (Homo sapiens, UniProt O14744).
T1 construct: made in house; host or cells: Sf9 insect cells (Bac-to-Bac baculovirus system)
Kind of experiment: MTase-Glo enzymatic inhibition assay. It is filed as biochemical. To be noted: 100 nM PRMT5:MEP50, 10 μM SAM, 2 μM histone H4 (1-21). From the text:
(§1) Protein expression and purification. […] Enzymatic inhibition assay. […] Cancer cell lines. […] Cell proliferation assay. […] Western blot.

The target in experiment [1] is T2, PRMT5 (Homo sapiens, UniProt O14744). Kind of experiment: AlphaLISA enzymatic inhibition assay. It is filed as biochemical. The arrangement: made in house; host or cells: Sf9 insect cells (Bac-to-Bac baculovirus system).
From the text: as §1
(In general: Bead proximity is the source of the signal in Alpha formats.)

Experiment [2] has as its target T2, PRMT5. Nature of the experiment: Cellular Thermal Shift Assay. It is filed as cell-based. On the set-up: endogenous in cells; host or cells: MDA-MB-231. The note with it: MDA-MB-231 triple negative breast cancer cells.

The structures appear in SMILES notation.

T1 sequence (O14744 whole entry): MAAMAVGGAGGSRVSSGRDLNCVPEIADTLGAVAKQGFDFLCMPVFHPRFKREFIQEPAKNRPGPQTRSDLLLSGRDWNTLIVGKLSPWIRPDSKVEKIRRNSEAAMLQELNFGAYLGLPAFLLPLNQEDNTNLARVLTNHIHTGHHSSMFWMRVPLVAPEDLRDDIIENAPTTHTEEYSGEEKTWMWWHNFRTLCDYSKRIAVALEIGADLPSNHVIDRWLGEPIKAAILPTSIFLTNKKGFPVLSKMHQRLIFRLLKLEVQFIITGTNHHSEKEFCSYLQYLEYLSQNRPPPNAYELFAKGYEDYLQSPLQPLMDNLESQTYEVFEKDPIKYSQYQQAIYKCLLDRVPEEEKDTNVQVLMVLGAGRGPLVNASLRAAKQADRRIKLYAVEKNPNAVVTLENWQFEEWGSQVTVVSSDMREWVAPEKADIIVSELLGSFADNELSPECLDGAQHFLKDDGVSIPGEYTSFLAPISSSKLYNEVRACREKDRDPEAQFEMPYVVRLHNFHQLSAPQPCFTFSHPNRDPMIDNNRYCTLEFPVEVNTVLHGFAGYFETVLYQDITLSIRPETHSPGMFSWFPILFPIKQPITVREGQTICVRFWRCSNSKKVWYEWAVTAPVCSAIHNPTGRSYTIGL
T1 sequence (Q9BQA1 whole entry partner): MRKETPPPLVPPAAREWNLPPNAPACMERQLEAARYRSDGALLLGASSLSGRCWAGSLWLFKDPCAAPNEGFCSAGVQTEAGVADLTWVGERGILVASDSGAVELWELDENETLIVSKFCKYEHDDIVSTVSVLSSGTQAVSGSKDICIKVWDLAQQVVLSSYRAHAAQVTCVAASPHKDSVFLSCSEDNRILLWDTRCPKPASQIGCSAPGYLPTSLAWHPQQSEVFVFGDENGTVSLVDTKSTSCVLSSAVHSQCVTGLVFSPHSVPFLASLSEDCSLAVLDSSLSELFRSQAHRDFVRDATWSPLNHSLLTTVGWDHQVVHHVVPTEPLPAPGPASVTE
T2 sequence (O14744 whole entry): as the sequence (O14744 whole entry) above
T2 sequence (Q9BQA1 whole entry partner): as the sequence (Q9BQA1 whole entry partner) above

By IC50 is commonly meant the midpoint of a concentration-inhibition curve. Lower therefore signals higher potency. For the compound `CC(=O)N1CCC(Nc2cc(C(=O)NCc3ccc4c(N)nc(N)nc4c3)ncn2)CC1` [Compound 15-2F], the half-maximal inhibitory concentration (IC50) on PRMT5:MEP50 (15-series) was 152 nM. As to `CCn1c2ccccc2c2cc(CNCc3ccccn3)ccc21` [CMP5], the enzymatic inhibition activity entry at PRMT5 [1] is “weak”. Regarding `CCn1c2c(c3cc(C(=O)NCc4ccc5ccc(N)nc5c4)ccc31)CCCC2` [Compound 11-1F], the IC50 against PRMT5:MEP50 (11-series) turned out to be 1340 nM. Consider `Nc1ccc2ccc(CNC(=O)c3ccc4c(c3)c3c(n4CCO)CCCC3)cc2n1` [Compound 11-2F], for which, on PRMT5:MEP50 (11-series), the IC50 came to 883 nM. As for `CC(=O)N1CCC(Nc2cc(C(=O)NCc3ccc4ccc(N)nc4c3)ncn2)CC1` [Compound 15-1F], the half-inhibitory concentration (IC50) against PRMT5:MEP50 (15-series) is 218 nM. As for `CCn1c2c(c3cc(C(=O)NCc4ccc5c(N)nc(N)nc5c4)ccc31)CCCC2` [Compound 11-9F], on PRMT5 [2], the “PRMT5 melting temperature increase” value was 1.5 degree Celsius.

The values above are taken from patent US20230212143A9, “PRMT5 INHIBITOR COMPOUNDS” (University of Florida Research Foundation, Incorporated, priority 2019, published 2023).
